Where two headings read alike, the source gives them in different places.
Key:
CHL = test system: CHL; parameters: method as in Investigator's Brochure (IB) 12; conditions: ref Investigator's Brochure (IB) 12; cited from earlier work
[1] = test system: EC063 esophageal cancer PDX; parameters: method as in Investigator's Brochure (IB) 12; conditions: 12.5 mg/kg oral for 21 days; ref Investigator's Brochure (IB) 12; cited from earlier work
PI3Kβ, PI3Kδ, and PI3Kγ = test system: PI3Kβ, PI3Kδ, and PI3Kγ; parameters: method as in PMID 33109399; conditions: read-out: IC50 range; cited from earlier work
[2] = test system: phosphorylation of Akt and rpS6; parameters: method as in Investigator's Brochure (IB) 12; conditions: ref Investigator's Brochure (IB) 12, cited from earlier work
CYP2D6 = test system: CYP2D6; parameters: method as in Investigator's Brochure (IB) 12; conditions: up to 100 µM; ref Investigator's Brochure (IB) 12; cited from earlier work
[3] = parameters: method as in Study Protocol CYH33-101 Table 2; conditions: in H2O; ref Study Protocol CYH33-101 Table 2; cited from earlier work
[4] = parameters: method as in Investigator's Brochure (IB) 12; conditions: ref Investigator's Brochure (IB) 12, cited from earlier work; for absolute bioavailability: 1 mg/kg
[5] = parameters: method as in Study Protocol CYH33-101 Table 2; conditions: ref Study Protocol CYH33-101 Table 2; cited from earlier work
[6] = parameters: method as in Investigator's Brochure (IB) 12; conditions: ref Investigator's Brochure (IB) 12, cited from earlier work
[7] = parameters: method as in Investigator's Brochure (IB) 12; conditions: rats, without concentration dependency; ref Investigator's Brochure (IB) 12; cited from earlier work
[8] = parameters: method as in Investigator's Brochure (IB) 12; conditions: dogs, without concentration dependency; ref Investigator's Brochure (IB) 12; cited from earlier work
CYP2B6 = test system: CYP2B6; parameters: method as in Investigator's Brochure (IB) 12; conditions: up to 100 µM; ref Investigator's Brochure (IB) 12; cited from earlier work
SD rats = test: Long-term toxicity assay, SD rats; format: in vivo; conditions: 3 mg/kg x 0.162 x 60 kg
Excerpt: Shanghai Haihe Biopharma Co., Ltd. Protocol No.: CYH33-101, Version: 5.0 […]
in hepatocytes was sign ificantly higher in dogs than in other species. The extent of hydrolytic metabolism of amide bonds in monk ey hepatocytes was low, but the extent of oxidative metabolism (M5, M6) was higher than that in other animal species. Oxidative metabolites of CYH33 were not detected in hum an hepatocytes, so th e metabolic effect of oxidative metabolic enzymes in human liver on C YH33 was not evaluated. The liver and intestine homogenates of dogs were collected, confirming that the amide hydrolysis of CYH33 was mainly catalyzed by carboxylesterase in liver. […]
transport across Caco-2 cells in the concentration range of 2.00 - 10.0 µM.
For detailed results of nonclinical pharmacokinetic and product metabol ism studies of […]
1.2.3 Results of Nonclinical Toxicological Study […]
tidal volume (TV), respiratory volume (MV) per minute and frequency of respiration (Rf) […]
on the central n ervous system (CNS) noticed.
The acute toxicity assay confirmed that the MTD was ≥ 600 mg/kg in SD rats, and the maximum tolerated dose (MTD) was >120 mg/kg in beagle dogs. The long-term toxicity […]
were greater than those in males, and the highest non-severely toxic dose (HNSTD) was 8 mg/kg in males and 3 mg/kg in females. […]

COC(=O)Nc1cc(C(F)(F)F)c(-c2nc(N3CCOCC3)c3cc(CN4CCN(S(C)(=O)=O)CC4)cn3n2)cn1 [CYH33, methyl (5-(6-((4-(methylsulfonyl)piperazin-1-yl)methyl)−4-morpholinopyrrolo[2,1-f][1,2,4]triazin-2-yl)−4-(trifluoromethyl)pyridin-2-yl)carbamate]
CHL chromosomal aberration assay result (CHL): negative | T/C ratio [1]: approximately 30% | IC50 (PI3Kβ, PI3Kδ, and PI3Kγ): 43 to 611 nM | time of peak concentration in tumor tissues ([2]; single dose 12.5, 25, 50 mg/kg): 2 h | phosphorylation of Akt and rpS6 in tumor tissues ([2]; single dose, at 0.25 h (25, 50 mg/kg) or 0.5 h (12.5 mg/kg), recovered after 8 h): down-regulate | inhibition of CYP2D6 (CYP2D6): did not inhibit | pKa [3]: 4.86 ± 0.06 | absolute bioavailability ([4]; female rats): 53.7% | plasma clearance CL ([4]; female rats): 34.0 mL/min/kg | t1/2 ([4]; female rats): 6.7 h | exposure AUC0-t in female rats relative to male rats ([4]; intragastric administration): more than 12 times | absolute bioavailability ([4]; male rats): 19.0% | plasma clearance CL ([4]; male rats): 4.83 mL/min/kg | t1/2 ([4]; male rats): 1.3 to 4.5 h | Vss, steady-state volume of distribution ([4]; rats): 1.96 L/kg | accumulation after continuous administration for 7 days ([4]; rats): not significant | log P [5]: 2.89 | number of metabolites detected in vivo [6]: 14 | urinary excretion [6]: less than 1 % of the dose | cumulative excretion of parent drug in feces ([6]; within 96 h after administration): approximately 24 % of the dose | plasma protein binding (PPB) [7]: 97.5% | plasma protein binding (PPB) [8]: 97.1% | inhibition of CYP2B6 (CYP2B6): did not inhibit | human equivalent dose (HED) of long-term HNSTD of rats (females), critical toxic dose (SD rats): about 30 mg

Reference: PMC9669016, “First-in-human phase Ia study of the PI3Kα inhibitor CYH33 in patients with solid tumors” (Nature Communications, 2022)
